Source: PMC10141604, “Small-Molecule Inhibition of Androgen Receptor Dimerization as a Strategy against Prostate Cancer” (ACS Central Science, 2023)

What was measured:
AR LBD = target: T1, AR LBD (Homo sapiens, UniProt P10275); experiment: Biolayer interferometry (BLI) binding to purified AR LBD
T1 construct: The AR LBD (663-919) was fused into the pET50b vector with Nus-tag; Nus-tag (cleaved yes); made in house; host or cells: E. coli BL21 (DE3)
Method: in 4 L LB media at 37°C until OD600 arrived to 0.6, then supplemented with 0.5 mM Isopropyl β-D-1-Thiogalactopyranoside (IPTG) and 20 μM DHT. After incubated at 16 °C for 16-18 h, the cells were collected by centrifugation at 3,500 × g for 0.5 h. The cell mass was resuspended in Lysis buffer (20 mM Tris -HCL pH 7.4, 5 mM imidazole,150 mM NaCl, 10% Glycerol, 2 mM Dithiothreitol (DTT) and 10 μM DHT) and lysed at 800 bar for at least 5 cycles. The lysis was centrifugated at 14,000 × g for 0.5 h, and the supernatant was loaded to HisTrap TM […] HP column (#17524802, GE Healthcare), followed by washing and eluting steps using 65 mM imidazole and 300 mM imidazole, respectively.
The elution from Ni-NTA were cut by HRV-3C protease, and further purified by […]
The purified AR LBD protein was biotinylated using EZ-Link™ Sulfo-NHS-LC-LC-Biotin (#A35358, ThermoFisher) in 500 μL phosphate -buffered saline with 0.02% Tween -20 (v/v, PBST) buffer for 2 h at 4 °C. […] The kinetics of the AR LBD and M17-B15 association was evaluated by soaking the AR LBD-loaded sensors into wells containing various concentrations of M17 -B15 (6.25, 12.5, 25, 50, 100 μM) for 60 s, followed by dissociation of M17 -B15 by soaking the sensors in the PBST buffer for 60 s. The kinetics values were calculated by fitting the kinetic data based on a 1:1 binding model using Forté Bio data analysis (v.11.1) software .

AR LBD dimer = target: T2, AR LBD dimer (Homo sapiens, UniProt P10275); experiment: SAXS and CXMS analysis of AR LBD dimerization; type: biochemical
T2 construct: The AR LBD (663-919) was fused into the pET50b vector with Nus-tag; Nus-tag (cleaved yes); made in house; host or cells: E. coli BL21 (DE3)
Method: 30 μM AR LBD protein was crosslinked with a 50× molar excess of freshly prepared BS3 (#21580, ThermoFisher) in 20 mM HEPES (pH 7.4), 5% Glycerol, 150 mM NaCl, 10 μM DHT, with or without 90 μM M17-B15. The cross-linking reaction was conducted at room temperature with gentle mixing, and was quenched after 45 min with the addition of Tris-HCl buffer (pH 8.0) to a concentration of 20 mM.
Cross-linked proteins were precipitated with 6-fold volume of pre-cooled acetone for 2 h at -20 °C. Centrifuge at 14,000 rpm for 20 min, and discard the supernatant. Then added 20 μL 100 mM Tris-HCl buffer (pH 8.5), 8 M urea, and ultrasound for 20 min to assist protein dissolution. 5 mM reducing agent TCEP, 10 mM alkylating agent iodoacetamide, 1 mM CaCl2 and 20 mM methylamine were added in tandem. And 3-fold volume of 100 mM Tris pH 8.5 was added to dilute urea to 2 M. Then added trypsin (the mass ratio of enzyme to protein is 1:50) and digested the protein samples at 37 °C for 14 h. Finally, quenched the digestion reaction by adding formic acid with a final […]
An Easy nLC 1000 system (ThermoFisher) coupled to a Velos Pro Orbitrap Elite mass spectrometer (ThermoFisher) was used for mass spectrometry analysis. The resulting peptide mixture was vacuum-centrifuged to dryness, and reconstituted in 0.1% formic acid. […]
respectively. […] The scattering profile for matching buffer was also recorded and was subtracted. […]

T2 sequence (P10275 663-919): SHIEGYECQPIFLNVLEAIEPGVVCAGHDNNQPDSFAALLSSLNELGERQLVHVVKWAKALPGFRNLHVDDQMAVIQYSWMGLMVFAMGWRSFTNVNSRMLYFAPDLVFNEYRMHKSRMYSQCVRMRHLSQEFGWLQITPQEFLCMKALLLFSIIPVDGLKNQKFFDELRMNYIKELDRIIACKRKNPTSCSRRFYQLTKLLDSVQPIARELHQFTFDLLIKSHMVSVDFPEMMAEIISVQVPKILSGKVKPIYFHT
T1 sequence (P10275 663-919): as above

With `CC(=O)Cc1nsc(NC(=O)c2cc(-c3cccc(C(F)(F)F)c3)oc2C)n1` [Compound M17-B15] the Kd (AR LBD; 1:1 binding model, read-out: equilibrium dissociation constant (KD)) was 13.2 µM, the koff (AR LBD; read-out: Kd (dissociation rate)) was 0.033 s⁻¹ and the “Dmax value of the AR LBD (SAXS)” value (AR LBD dimer; upon addition of compound) was “markedly reduced”. The “proportion of the AR LBD dimer” value (AR LBD dimer; with DHT, 20% without M17-B15) was 15%.
